The values below come from US10548899B2, “Quinazolinone and benzotriazinone compounds with cholinergic muscarinin M1 receptor positive allosteric modulator activity” (TAKEDA PHARMACEUTICAL COMPANY LIMITED, priority 2015, dated 2020).

The target of this test is T1, human M1 receptor (hCHRM1) (Homo sapiens, UniProt P11229).
T1 construct: expressed in transfected cells; host or cells: CHO-K1
T1 sequence (P11229 1-460): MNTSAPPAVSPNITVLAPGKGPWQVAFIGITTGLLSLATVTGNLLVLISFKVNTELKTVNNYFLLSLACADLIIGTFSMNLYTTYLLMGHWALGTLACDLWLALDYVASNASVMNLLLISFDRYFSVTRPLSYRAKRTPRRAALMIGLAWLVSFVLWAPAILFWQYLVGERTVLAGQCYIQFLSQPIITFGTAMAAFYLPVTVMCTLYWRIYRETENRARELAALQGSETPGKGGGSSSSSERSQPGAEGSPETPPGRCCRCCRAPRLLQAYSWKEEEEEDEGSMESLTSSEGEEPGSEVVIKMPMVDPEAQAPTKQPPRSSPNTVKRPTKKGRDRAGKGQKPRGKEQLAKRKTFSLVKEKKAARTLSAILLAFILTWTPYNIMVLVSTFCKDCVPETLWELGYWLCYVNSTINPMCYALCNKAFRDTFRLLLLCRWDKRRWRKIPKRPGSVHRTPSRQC
Description: Measurement of M1 receptor positive allosteric modulator (M1PAM) activity (calcium fluorescence, Fluo-4, FDSS). The test is classed as cell-based. The note with it: for activity (%) at 10 μM: 10 μM test compound, acetylcholine EC20 (final 0.8 nM) present, 100% = acetylcholine 1 μM, 0% = DMSO, CHO-K1 hCHRM1 cells; for EC50: inflection point of concentration-dependent curve, CHO-K1 cells stably expressing hCHRM1, in presence of acetylcholine at EC20 concentration (final 0.8 nM), read-out: IP value. The protocol:
Measurement of M1 receptor positive allosteric modulator (M1PAM) activity
The activity of a test compound in the presence of acetylcholine at EC20 concentration (final concentration 0.8 nM), which affords an action corresponding to about 20% of the maximum activity, was measured as PAM activity. The method is as follows. CHO-K1 cells stably expressing a human M1 receptor (hCHRM1) were plated on a 384-well black clear bottom plate (BD Falcon) at 5,000 cells/well, and cultured in an incubator at 37° C., 5% CO2 for 1 day. The medium in the cell plate was removed, and assay buffer A containing a calcium indicator (Recording medium (DOJINDO LABORATORIES), 0.1% BSA (Wako Pure Chemical Industries, Ltd.), 2.5 μg/mL Fluo-4 AM (DOJINDO LABORATORIES), 0.08% Pluronic F127 (DOJINDO LABORATORIES) and 1.25 mM probenecid (DOJINDO LABORATORIES) were added at 30 μL/well. The cells were left standing in the incubator at 37° C., 5% CO2 for 30 min, and further left standing at room temperature for 30 min. A test compound prepared by diluting with assay buffer B (HESS (Invitrogen), 20 mM HEPES (Invitrogen), 0.1% BSA) containing 3.2 nM acetylcholine was added at 10 μL/well, and the fluorescence was measured by FDSS/μcell (Hamamatsu Photonics K.K.) for 1 min every for 1 second. With the definition that the amount of change in the fluorescence on addition of acetylcholine (final concentration 1 μM) is 100% and that on addition of DMSO instead of a test compound is 0%, the activity (%) of the test compound was calculated, and the inflection point in the concentration-dependent curve of the test compound was calculated as IP values.

`Cc1c(Cc2ccc(Cl)nc2)cc2c(=O)n([C@H]3CCCC[C@@H]3O)cnc2c1C` [Example 54, 6-((6-chloropyridin-3-yl)methyl)-3-((1S,2S)-2-hydroxycyclohexyl)-7,8-dimethylquinazolin-4(3H)-one]: the “activity (%) at 10 μM” value was found to be 96% and the EC50 amounted to 23 nM.
In the case of `Cc1c(Cc2ccc(-n3cccn3)cc2)cc2c(=O)n([C@H]3CCOC[C@@H]3O)cnc2c1C` [Example 55, 3-((3R,4S)-3-hydroxytetrahydro-2H-pyran-4-yl)-7,8-dimethyl-6-(4-(1H-pyrazol-1-yl)benzyl)quinazolin-4(3H)-one], the “activity (%) at 10 μM” value came to 99% and the EC50 came out at 7.4 nM.
As to `Cc1c(Cc2ccc(-n3cccn3)cc2)cc2c(=O)n([C@H]3CCOC[C@@H]3O)nnc2c1C` [Example 56, 3-((3R,4S)-3-hydroxytetrahydro-2H-pyran-4-yl)-7,8-dimethyl-6-(4-(1H-pyrazol-1-yl)benzyl)-1,2,3-benzotriazin-4(3H)-one], the “activity (%) at 10 μM” value amounted to 98% and the EC50 stood at 15 nM.
For `Cc1c(Cc2ccc(-c3ccn(C)n3)nc2)cc2c(=O)n([C@H]3CCCC[C@@H]3O)cnc2c1C` [Example 57, 3-((1S,2S)-2-hydroxycyclohexyl)-7,8-dimethyl-6-((6-(1-methyl-1H-pyrazol-3-yl)pyridin-3-yl)methyl)quinazolin-4(3H)-one], the “activity (%) at 10 μM” value is recorded as 98% and the EC50 was found to be 7.3 nM.
Regarding `Cc1c(Cc2ccc(-c3ccn(C)n3)nc2)cc2c(=O)n([C@H]3COCC[C@@H]3O)nnc2c1C` [Example 58, 3-((3S,4S)-4-hydroxytetrahydro-2H-pyran-3-yl)-7,8-dimethyl-6-((6-(1-methyl-1H-pyrazol-3-yl)pyridin-3-yl)methyl)-1,2,3-benzotriazin-4(3H)-one], the “activity (%) at 10 μM” value is on record as 95% and the EC50 stood at 14 nM.
On to `Cc1c(Cc2ccc(-c3cnn(C)c3)nc2)cc2c(=O)n([C@H]3CCCC[C@@H]3O)cnc2c1C` [Example 59, 3-((1S,2S)-2-hydroxycyclohexyl)-7,8-dimethyl-6-((6-(1-methyl-1H-pyrazol-4-yl)pyridin-3-yl)methyl)quinazolin-4(3H)-one], for which the “activity (%) at 10 μM” value came to 94% and the EC50 turned out to be 4.8 nM.
